Measurements as given in ChEMBL document CHEMBL1127940, “Analogs of the marine natural product scalaradial lacking the ,-unsaturated aldehyde: effects on human synovial fluid phospholipase A2 and macrophage lipid mediator production” (Bioorg Med Chem Lett, 1994).

Columns and labels:
[1] = In vitro inhibition of PGE-2 production in murine resident peritoneal macrophage; format: functional; settings: Mus musculus
[2] = organism: Homo sapiens; experiment: In vitro inhibition of platelet activating factor (PAF) production in human PMN; format: functional
[3] = molecular target: T1, Phospholipase A2, membrane associated (Homo sapiens, UniProt P14555); experiment: In vitro inhibitory activity against human synovial fluid phospholipase A2 (HSF-PLA2) by monitoring hydrolysis of [3H]arachidonic acid labeled Escherichia coli
T1 sequence (P14555 whole entry): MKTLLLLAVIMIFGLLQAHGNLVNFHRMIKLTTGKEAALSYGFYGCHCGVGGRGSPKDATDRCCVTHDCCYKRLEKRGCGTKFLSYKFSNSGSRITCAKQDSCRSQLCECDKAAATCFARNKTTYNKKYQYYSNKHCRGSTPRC

[4] = organism: Homo sapiens; experiment: In vitro inhibition of LTB4 production in human PMN; format: functional
[5] = organism: Homo sapiens; experiment: In vitro percent inhibition of platelet activating factor (PAF) production in human PMN at 10 uM; format: functional
[6] = organism: Homo sapiens; experiment: In vitro inhibition of platelet activating factor (PAF) production in human PMN at 50 uM; not active at 50 uM; format: functional
[7] = molecular target: T1, Phospholipase A2, membrane associated; experiment: In vitro inhibition tested against Phospholipase A2 (HSF-PLA2) by monitoring hydrolysis of [3H]- arachidonic acid labeled Escherichia coli at 50 uM
[8] = molecular target: T2, Phospholipase A2, membrane associated (Homo sapiens) (UniProt P14555); experiment: In vitro percent inhibition against Phospholipase A2 (HSF-PLA2) by monitoring hydrolysis of [3H]- arachidonic acid labeled Escherichia coli at 50 uM
T2 sequence (whole entry): T1 sequence (P14555 whole entry)

[9] = organism: Homo sapiens; experiment: In vitro inhibition of LTB4 production in human PMN at 50 uM; not active at 50 uM; format: functional

**Q.** With `CC(=O)O[C@H]1C[C@@H]2[C@@]3(C)CCCC(C)(C)[C@@H]3CC[C@@]2(C)[C@@H]2CC=C(C=O)[C@H](C=O)[C@@]12C` [SCALARADIAL] as the compound, how does the IC50 [1] read?
**A.** The IC50 was 0.04 µM.

**Q.** What about the IC50 [2] of the same compound?
**A.** Its IC50 is 1 µM.

**Q.** What about the IC50 [3] of the same compound?
**A.** Its IC50 is 0.015 µM.

**Q.** And the IC50 [4]?
**A.** Its IC50 is 1 µM.

**Q.** Which IC50 [1] does the source give for `CC(=O)O[C@H]1CC2[C@@]3(C)CCCC(C)(C)C3CC[C@@]2(C)C2CC=C(C(=O)O)[C@H](C(=O)O)[C@]21C` (some centres not stated) here?
**A.** Its IC50 is 0.2 µM.

**Q.** What about the inhibition at 10 µM [5] of the same compound?
**A.** The inhibition at 10 µM was 60%.

**Q.** What about the IC50 [3] of the same compound?
**A.** Its IC50 is 4.8 µM.

**Q.** For `CC1(C)CCC[C@@]2(C)C1CC[C@]1(C)C2C[C@H](O)[C@@]2(C)C1CC=C(CO)[C@@H]2CO` (some centres not stated), which IC50 [1] is on record?
**A.** The IC50 was 0.3 µM.

**Q.** What about the IC50 [6] of the same compound?
**A.** The IC50 was “Not Active”.

**Q.** And the IC50 [7]?
**A.** The IC50 was greater than 50 µM.

**Q.** And the inhibition [8]?
**A.** The inhibition was 21%.

**Q.** What about the IC50 [9] of the same compound?
**A.** The IC50 was “Not Active”.
